From patent US5756355A, “Lipid membrane sensors” (Ecole Polytechnique Federale de Lausanne, priority 1992, dated 1998)

Key:
[1] = target: T1, 5-HT3 receptor (Bos taurus, UniProt F1N4Y2); assay: Current responses of gold-supported lipid bilayer sensor with incorporated 5-HT3 receptor during stimulation by agonists, without or with antagonist; assay type: biochemical, calf
T1 construct: from tissue; host or cells: calf brain, entorhinal cortex and hippocampus; detergent (OPG) solubilised and purified on 5-HT-agarose
T1 sequence (F1N4Y2 29-488): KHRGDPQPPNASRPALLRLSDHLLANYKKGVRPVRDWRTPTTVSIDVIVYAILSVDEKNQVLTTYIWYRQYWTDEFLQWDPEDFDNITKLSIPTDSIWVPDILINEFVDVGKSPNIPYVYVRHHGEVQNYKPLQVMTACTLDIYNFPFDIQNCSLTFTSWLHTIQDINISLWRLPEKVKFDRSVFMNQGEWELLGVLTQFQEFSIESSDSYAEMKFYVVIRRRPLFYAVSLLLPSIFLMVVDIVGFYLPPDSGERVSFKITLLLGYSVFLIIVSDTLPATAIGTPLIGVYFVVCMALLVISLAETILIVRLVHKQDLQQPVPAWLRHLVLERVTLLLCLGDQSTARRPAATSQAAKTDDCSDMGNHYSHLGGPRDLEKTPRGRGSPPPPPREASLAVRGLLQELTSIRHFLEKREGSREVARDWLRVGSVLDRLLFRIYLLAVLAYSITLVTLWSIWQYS
Procedure: A 1 mm^2 gold electrode was cleaned and inserted into the electrochemical cell as described in Example 5. First, 100 μl of the thiolipid/OPG solution (0.7 mM/48 mM in 0.1 M KCl) was added and the adsorption process followed as described in Example 6. After approximately 2 minutes, the solution was completely replaced. The sample was washed several times with 55 mM OGP in 0.1 M KCl.
A receptor-containing solution was prepared as follows: 2 mg (2.9 μmol) of DMPC, 2 mg (2.6 μmol) of POPC (i.e. an approximately 1:1 molar ratio of DMPC: POPC) and 2 mg ([…]) of OPG were ultrasonicated in 1 ml of 0.1 M KCl, until the solution became clear. This solution was mixed with 15 μg of the 5-HT3 receptor (1 mg/ml, in 40 mM OPG and complex buffer "A" as used in Example 4), 100 μl of the receptor-containing solution was placed in the cell. After about 2 minutes, the cell solution was diluted stepwise by the addition of small portions of 0.1 M KCl. Finally, the solution was completely replaced by 0.1 M KCl. The resulting layer was used for experiments within 5 hours at most, then being removed by washing with 55 mM OGP in 0.1 M KCl and formed again using the ice-cooled receptor solution.
50 μl portions of 5-HT solution "B" (20 μM 5-HT in 0.1 M KCl) were added successively to the layer with the incorporated receptor (still connected to the cell containing 500 μl of 0.1 M KCl). An interval of about 50 seconds was left between additions (the capacitive and the faradaic current reaching a constant value).
The construction of the receptor-containing system was performed as described above. Again, 500 μl of 0.1 M KCl was placed in the measurement cell but for stimulation, a solution "C" of 20 μM 1-phenylbiguanide, another agonist, in 0.1 M KCl was used.
The supported lipid bilayer, containing the 5-HT3 receptor, was formed as described in (ii). […] After each addition, the values of the capacitive and the faradaic currents were allowed to stabilize.
(§1) A large (geometrical area about 1 cm^2) AgCl-coated Ag wire served as the counter/reference electrode and was fixed at a defined distance from the working electrode. The impedance measurements were made using a two-channel lock-in amplifier (EG&G model 5206) at v=120 Hz, applying Uo =17.5 mV RMS to the electrochemical cell. The real and imaginary parts of the impedance were obtained from the currents in phase (faradaic component Ifarad) and 90° out of phase (capacitive component Icap) with the applied voltage, respectively. These currents were measured on a 1 k.OMEGA. resistor in series with the electrodes.
(§2) The impedance and capacitance of the membrane layers on the gold electrodes were determined from the two current components, Ifarad and Icap, using a simplified model for the electrical behaviour of the membrane with the membrane resistance R=Uo /Ifarad in parallel to the membrane capacitance C=Icap /(2πvUo).

[2] = Current responses of the lipid bilayer without receptor (pure lipid layer); conditions: for Icap current response / Ifarad current response: pure lipid layer without receptor; for alterations of the electrical properties of the lipid layer without receptor: same concentration range as with receptor
Procedure: For comparison, a corresponding lipid bilayer without the receptor protein was formed by completing the imperfect thiolipid monolayer on the gold electrode with the corresponding pure phospholipid/detergent solution.
The same experiment was performed using a lipid layer without receptor.
The same experiment was performed using the lipid bilayer without receptor.
as §1, with “The impedance measurements were made using a two-channel lock-in amplifier (EG&G model 5206) at v=120 Hz, applying Uo =17.5 mV RMS to the electrochemical cell.” left out
as §2

[3] = phenylbiguanide 1.82 μM, Experiment 1
[4] = phenylbiguanide 1.82 μM, Experiment 2
[5] = phenylbiguanide 3.33 μM, Experiment 1
[6] = phenylbiguanide 3.33 μM, Experiment 2
[7] = phenylbiguanide 4.62 μM, Experiment 1
[8] = phenylbiguanide 4.62 μM, Experiment 2
[9] = phenylbiguanide 5.71 μM, Experiment 1
[10] = phenylbiguanide 5.71 μM, Experiment 2
[11] = phenylbiguanide 6.67 μM, Experiment 1
[12] = phenylbiguanide 6.67 μM, Experiment 2
[13] = phenylbiguanide 7.50 μM, Experiment 1
[14] = phenylbiguanide 7.50 μM, Experiment 2
[15] = phenylbiguanide 8.89 μM, Experiment 1
[16] = phenylbiguanide 8.89 μM, Experiment 2
[17] = phenylbiguanide 11.67 μM, Experiment 1
[18] = phenylbiguanide 11.67 μM, Experiment 2
[19] = phenylbiguanide 12.86 μM, Experiment 1
[20] = phenylbiguanide 12.86 μM, Experiment 2
[21] = phenylbiguanide 14.74 μM, Experiment 1
[22] = phenylbiguanide 14.74 μM, Experiment 2
[23] = phenylbiguanide 10. μM, Experiment 1
[24] = phenylbiguanide 10. μM, Experiment 2

`N=C(N)NC(=N)Nc1ccccc1` [1-phenylbiguanide] gave an Icap current response [1, 3] of 96.3 nA, an Ifarad current response [1, 3] of 23.6 nA and an Icap current response [1, 4] of 97.3 nA. It also gave an Ifarad current response [1, 4] of 22.7 nA, an Icap current response [1, 5] of 97.1 nA and an Ifarad current response [1, 5] of 26.1 nA. The Icap current response [1, 6] was 98.0 nA, the Ifarad current response [1, 6] was 25.0 nA and the Icap current response [1, 7] was 97.6 nA. For the same compound, the Ifarad current response [1, 7] was 27.7 nA, the Icap current response [1, 8] was 98.5 nA and the Ifarad current response [1, 8] was 26.6 nA. For the same compound, the Icap current response [1, 9] was 98 nA, the Ifarad current response [1, 9] was 28.9 nA and the Icap current response [1, 10] was 99.2 nA. For the same compound, the Ifarad current response [1, 10] was 28.3 nA, the Icap current response [1, 11] was 98.3 nA and the Ifarad current response [1, 11] was 29.7 nA. It also gave an Icap current response [1, 12] of 99.4 nA, an Ifarad current response [1, 12] of 29.0 nA and an Icap current response [1, 13] of 98.4 nA. For the same compound, the Ifarad current response [1, 13] was 30.1 nA, the Icap current response [1, 14] was 99.5 nA and the Ifarad current response [1, 14] was 29.5 nA. It also gave an Icap current response [1, 15] of 98.5 nA, an Ifarad current response [1, 15] of 30.6 nA and an Icap current response [1, 16] of 99.6 nA. The Ifarad current response [1, 16] was 29.8 nA, the Icap current response [1, 17] was 98.6 nA and the Ifarad current response [1, 17] was 31.1 nA. The Icap current response [1, 18] was 99.6 nA, the Ifarad current response [1, 18] was 30.3 nA and the Icap current response [1, 19] was 98.6 nA. The Ifarad current response [1, 19] was 31.2 nA, the Icap current response [1, 20] was 99.6 nA and the Ifarad current response [1, 20] was 30.4 nA. The Icap current response [1, 21] was 98.6 nA, the Ifarad current response [1, 21] was 31.2 nA and the Icap current response [1, 22] was 99.6 nA. The Ifarad current response [1, 22] was 30.4 nA, the Icap current response [1, 23] was 98.6 nA and the Ifarad current response [1, 23] was 30.8 nA. It also gave an Icap current response [1, 24] of 99.6 nA, an Ifarad current response [1, 24] of 30.0 nA and an Icap current response ([2]; 1-phenylbiguanide 7.5 μM) of 96.5 nA. For the same compound, the Ifarad current response ([2]; 1-phenylbiguanide 7.5 μM) was 20.9 nA, the Icap current response ([2]; 1-phenylbiguanide 14.74 μM) was 96.4 nA and the Ifarad current response ([2]; 1-phenylbiguanide 14.74 μM) was 20.7 nA.

In the case of `CN1C2CCC1CC(OC(=O)c1c[nH]c3ccccc13)C2` (stereo not drawn) [ICS 205-930], the “5-HT concentration necessary for binding to the receptor, times higher than in the absence of the antagonist” value ([1]; in the presence of 10 nM ICS 205-930) was “about 40 times” and the “alterations of the electrical properties of the lipid layer without receptor” value [2] was “No alterations of the electrical properties of the lipid bilayer”.

With `NCCc1c[nH]c2ccc(O)cc12` [5-hydroxytryptamine] the “alterations of the electrical properties of the lipid layer without receptor” value [2] was “no alterations of the electrical properties of the pure lipid layer were observed”.
